# Legend:
# Homo sapiens [1] = species: Homo sapiens; test: Inhibition of PHK (unknown origin) at 1 uM incubated for 30 mins in presence of [gamma-33P]ATP by multidrop micro reagent based assay relative to control; values are per cent of control
# Homo sapiens [2] = species: Homo sapiens; test: Residual activity of VEGFR (unknown origin) at 10 uM incubated for 30 mins in presence of [gamma-33P]ATP by multidrop micro reagent based assay relative to control
# [3] = target: AMP-activated protein kinase, AMPK (Homo sapiens) (UniProt P54646+O43741+P54619+Q9UGJ0+Q9Y478+Q13131+Q9UGI9); test: Inhibition of AMPK (unknown origin) at 10 uM incubated for 30 mins in presence of [gamma-33P]ATP by multidrop micro reagent based assay relative to control; format: protein-complex assay
# [4] = target: Calcium/calmodulin-dependent protein kinase type 1 (Homo sapiens) (UniProt Q14012); test: Inhibition of CaMK1 (unknown origin) at 10 uM incubated for 30 mins in presence of [gamma-33P]ATP by multidrop micro reagent based assay relative to control; values are per cent of control
# [5] = target: Serine/threonine-protein kinase PAK 5 (Homo sapiens) (UniProt Q9P286); test: Inhibition of PAK5 (unknown origin) at 10 uM incubated for 30 mins in presence of [gamma-33P]ATP by multidrop micro reagent based assay relative to control; values are per cent of control
# Homo sapiens [6] = species: Homo sapiens; test: Inhibition of PHK (unknown origin) at 10 uM incubated for 30 mins in presence of [gamma-33P]ATP by multidrop micro reagent based assay relative to control; values are per cent of control
# [7] = target: T1, Interleukin-1 receptor-associated kinase 4 (Homo sapiens) (UniProt Q9NWZ3); test: Inhibition of IRAK4 (unknown origin) at 10 uM incubated for 30 mins in presence of [gamma-33P]ATP by multidrop micro reagent based assay relative to control; values are per cent of control
# T1 sequence (whole entry): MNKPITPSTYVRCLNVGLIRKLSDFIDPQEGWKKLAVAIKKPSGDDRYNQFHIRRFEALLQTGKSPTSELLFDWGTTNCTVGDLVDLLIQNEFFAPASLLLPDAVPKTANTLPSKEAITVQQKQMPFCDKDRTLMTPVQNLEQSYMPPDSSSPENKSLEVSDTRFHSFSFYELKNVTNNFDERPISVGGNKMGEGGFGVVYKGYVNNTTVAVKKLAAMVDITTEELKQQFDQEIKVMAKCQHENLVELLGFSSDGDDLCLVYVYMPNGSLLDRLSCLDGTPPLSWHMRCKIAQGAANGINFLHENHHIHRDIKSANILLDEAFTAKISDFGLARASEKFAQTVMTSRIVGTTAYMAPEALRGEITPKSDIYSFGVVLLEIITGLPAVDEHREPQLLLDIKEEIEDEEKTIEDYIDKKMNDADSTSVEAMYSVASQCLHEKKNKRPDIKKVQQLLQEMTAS
# [8] = target: Receptor tyrosine-protein kinase erbB-4 (Homo sapiens) (UniProt Q15303); test: Inhibition of HER4 (unknown origin) at 10 uM incubated for 30 mins in presence of [gamma-33P]ATP by multidrop micro reagent based assay relative to control; values are per cent of control
# [9] = target: MAP kinase-interacting serine/threonine-protein kinase 2 (Homo sapiens) (UniProt Q9HBH9); test: Inhibition of MNK2 (unknown origin) at 10 uM incubated for 30 mins in presence of [gamma-33P]ATP by multidrop micro reagent based assay relative to control; values are per cent of control
# [10] = target: Mitogen-activated protein kinase 14 (Homo sapiens) (UniProt Q16539); test: Inhibition of p38alpha MAPK (unknown origin) at 10 uM incubated for 30 mins in presence of [gamma-33P]ATP by multidrop micro reagent based assay relative to control; values are per cent of control
# [11] = target: T2, Ephrin type-B receptor 3 (Homo sapiens) (UniProt P54753); test: Inhibition of EPH-B3 (unknown origin) at 1 uM incubated for 30 mins in presence of [gamma-33P]ATP by multidrop micro reagent based assay relative to control
# T2 sequence (whole entry): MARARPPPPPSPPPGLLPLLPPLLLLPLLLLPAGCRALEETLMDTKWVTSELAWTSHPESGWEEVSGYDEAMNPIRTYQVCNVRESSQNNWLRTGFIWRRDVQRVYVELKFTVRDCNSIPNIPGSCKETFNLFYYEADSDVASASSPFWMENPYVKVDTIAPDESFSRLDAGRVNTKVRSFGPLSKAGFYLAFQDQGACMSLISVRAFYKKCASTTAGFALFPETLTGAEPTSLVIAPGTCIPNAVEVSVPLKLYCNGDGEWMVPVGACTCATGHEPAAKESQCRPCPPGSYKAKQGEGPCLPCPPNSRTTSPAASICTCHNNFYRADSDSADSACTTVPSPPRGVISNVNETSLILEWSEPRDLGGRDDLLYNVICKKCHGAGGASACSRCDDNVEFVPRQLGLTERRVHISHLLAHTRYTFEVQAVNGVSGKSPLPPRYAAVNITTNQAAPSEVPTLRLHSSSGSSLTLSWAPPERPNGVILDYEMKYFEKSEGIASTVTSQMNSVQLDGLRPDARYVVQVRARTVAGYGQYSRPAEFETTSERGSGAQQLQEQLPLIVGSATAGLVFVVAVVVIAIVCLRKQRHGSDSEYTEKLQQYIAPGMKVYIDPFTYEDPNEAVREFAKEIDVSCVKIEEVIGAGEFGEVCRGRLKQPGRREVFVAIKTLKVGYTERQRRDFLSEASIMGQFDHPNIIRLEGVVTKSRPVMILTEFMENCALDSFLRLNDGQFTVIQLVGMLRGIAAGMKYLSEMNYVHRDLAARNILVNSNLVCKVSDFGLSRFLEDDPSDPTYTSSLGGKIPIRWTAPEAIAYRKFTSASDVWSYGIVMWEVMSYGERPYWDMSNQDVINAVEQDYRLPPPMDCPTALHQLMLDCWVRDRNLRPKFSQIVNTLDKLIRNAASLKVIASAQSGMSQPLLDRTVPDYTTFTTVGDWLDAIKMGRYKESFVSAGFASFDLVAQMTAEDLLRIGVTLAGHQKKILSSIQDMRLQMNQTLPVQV
# Chain of MAP kinase-interacting serine/threonine-protein kinase 2 (Homo sapiens) (Q9HBH9 whole entry, looked up): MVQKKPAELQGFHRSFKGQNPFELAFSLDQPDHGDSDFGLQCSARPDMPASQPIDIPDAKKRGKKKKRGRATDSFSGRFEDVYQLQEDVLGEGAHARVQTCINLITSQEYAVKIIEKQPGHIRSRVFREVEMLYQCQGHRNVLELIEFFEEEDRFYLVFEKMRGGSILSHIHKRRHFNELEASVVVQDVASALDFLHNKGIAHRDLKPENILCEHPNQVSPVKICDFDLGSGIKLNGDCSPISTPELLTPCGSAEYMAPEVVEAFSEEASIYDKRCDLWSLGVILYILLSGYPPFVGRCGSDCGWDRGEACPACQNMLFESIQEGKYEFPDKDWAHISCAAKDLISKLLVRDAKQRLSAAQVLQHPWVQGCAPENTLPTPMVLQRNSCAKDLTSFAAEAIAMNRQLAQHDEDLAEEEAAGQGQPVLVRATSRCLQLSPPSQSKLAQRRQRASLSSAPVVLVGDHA
# Chain of Mitogen-activated protein kinase 14 (Homo sapiens) (Q16539 whole entry): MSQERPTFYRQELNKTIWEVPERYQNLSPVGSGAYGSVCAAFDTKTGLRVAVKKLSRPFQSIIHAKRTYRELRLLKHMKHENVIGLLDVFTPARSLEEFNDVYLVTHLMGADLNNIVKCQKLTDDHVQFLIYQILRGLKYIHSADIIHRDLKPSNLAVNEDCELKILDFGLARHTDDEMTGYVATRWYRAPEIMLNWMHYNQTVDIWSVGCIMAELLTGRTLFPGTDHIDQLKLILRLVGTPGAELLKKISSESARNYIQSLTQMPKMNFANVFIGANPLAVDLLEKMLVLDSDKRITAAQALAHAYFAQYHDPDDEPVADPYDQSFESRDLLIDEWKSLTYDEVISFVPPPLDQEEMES
# Chain of Serine/threonine-protein kinase PAK 5 (Homo sapiens) (Q9P286 whole entry, looked up): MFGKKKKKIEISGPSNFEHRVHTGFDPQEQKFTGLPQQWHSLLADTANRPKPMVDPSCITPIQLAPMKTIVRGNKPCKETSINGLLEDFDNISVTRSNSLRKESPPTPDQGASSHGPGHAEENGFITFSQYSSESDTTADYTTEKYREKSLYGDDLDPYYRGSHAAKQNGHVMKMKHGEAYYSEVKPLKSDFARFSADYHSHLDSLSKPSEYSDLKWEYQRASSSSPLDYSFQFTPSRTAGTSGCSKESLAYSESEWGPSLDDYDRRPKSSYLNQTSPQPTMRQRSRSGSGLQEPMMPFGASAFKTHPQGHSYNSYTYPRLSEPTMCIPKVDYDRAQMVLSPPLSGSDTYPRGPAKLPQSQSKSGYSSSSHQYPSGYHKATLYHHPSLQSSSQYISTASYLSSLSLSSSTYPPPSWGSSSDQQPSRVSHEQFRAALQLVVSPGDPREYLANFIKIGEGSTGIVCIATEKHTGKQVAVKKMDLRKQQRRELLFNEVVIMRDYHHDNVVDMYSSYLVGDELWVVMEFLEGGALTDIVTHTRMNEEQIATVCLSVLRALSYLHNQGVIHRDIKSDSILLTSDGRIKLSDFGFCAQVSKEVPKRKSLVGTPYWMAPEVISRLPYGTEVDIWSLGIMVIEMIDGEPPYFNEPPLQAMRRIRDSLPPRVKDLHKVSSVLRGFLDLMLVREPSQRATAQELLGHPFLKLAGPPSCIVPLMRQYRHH
# Chain of Receptor tyrosine-protein kinase erbB-4 (Homo sapiens) (Q15303 whole entry): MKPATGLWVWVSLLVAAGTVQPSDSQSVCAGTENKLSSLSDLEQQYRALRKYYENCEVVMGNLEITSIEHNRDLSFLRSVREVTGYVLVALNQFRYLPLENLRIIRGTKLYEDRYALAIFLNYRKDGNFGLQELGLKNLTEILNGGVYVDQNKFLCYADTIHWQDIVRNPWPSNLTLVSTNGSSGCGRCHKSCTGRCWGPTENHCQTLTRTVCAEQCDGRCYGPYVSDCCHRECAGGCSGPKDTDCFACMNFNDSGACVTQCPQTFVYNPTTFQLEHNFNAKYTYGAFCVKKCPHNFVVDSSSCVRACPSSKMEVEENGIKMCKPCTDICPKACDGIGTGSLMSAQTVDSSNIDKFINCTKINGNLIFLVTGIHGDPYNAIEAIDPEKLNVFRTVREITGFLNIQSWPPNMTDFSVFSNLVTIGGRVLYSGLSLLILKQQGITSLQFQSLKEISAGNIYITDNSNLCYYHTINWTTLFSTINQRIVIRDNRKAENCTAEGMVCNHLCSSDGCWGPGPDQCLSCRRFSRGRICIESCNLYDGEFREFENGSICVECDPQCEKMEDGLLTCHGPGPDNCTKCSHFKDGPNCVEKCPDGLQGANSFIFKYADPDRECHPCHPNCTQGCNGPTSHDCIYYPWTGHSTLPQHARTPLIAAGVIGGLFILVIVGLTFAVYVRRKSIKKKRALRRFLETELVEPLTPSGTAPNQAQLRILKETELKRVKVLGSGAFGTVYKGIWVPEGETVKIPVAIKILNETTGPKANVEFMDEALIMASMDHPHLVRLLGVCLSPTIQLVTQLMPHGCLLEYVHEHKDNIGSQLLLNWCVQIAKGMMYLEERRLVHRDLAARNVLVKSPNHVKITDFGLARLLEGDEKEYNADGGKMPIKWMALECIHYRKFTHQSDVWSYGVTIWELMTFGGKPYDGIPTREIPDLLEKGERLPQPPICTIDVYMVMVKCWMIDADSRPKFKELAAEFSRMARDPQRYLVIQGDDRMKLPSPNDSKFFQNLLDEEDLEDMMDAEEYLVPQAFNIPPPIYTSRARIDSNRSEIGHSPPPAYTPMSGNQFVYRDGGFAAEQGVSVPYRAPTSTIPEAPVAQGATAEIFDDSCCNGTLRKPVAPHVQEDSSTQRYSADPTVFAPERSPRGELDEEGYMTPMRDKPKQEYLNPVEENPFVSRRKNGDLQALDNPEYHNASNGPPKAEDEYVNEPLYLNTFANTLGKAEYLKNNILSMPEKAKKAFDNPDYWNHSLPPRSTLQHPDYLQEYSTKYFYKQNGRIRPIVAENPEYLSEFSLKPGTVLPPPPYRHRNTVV
# Chain of Calcium/calmodulin-dependent protein kinase type 1 (Homo sapiens) (Q14012 whole entry, looked up): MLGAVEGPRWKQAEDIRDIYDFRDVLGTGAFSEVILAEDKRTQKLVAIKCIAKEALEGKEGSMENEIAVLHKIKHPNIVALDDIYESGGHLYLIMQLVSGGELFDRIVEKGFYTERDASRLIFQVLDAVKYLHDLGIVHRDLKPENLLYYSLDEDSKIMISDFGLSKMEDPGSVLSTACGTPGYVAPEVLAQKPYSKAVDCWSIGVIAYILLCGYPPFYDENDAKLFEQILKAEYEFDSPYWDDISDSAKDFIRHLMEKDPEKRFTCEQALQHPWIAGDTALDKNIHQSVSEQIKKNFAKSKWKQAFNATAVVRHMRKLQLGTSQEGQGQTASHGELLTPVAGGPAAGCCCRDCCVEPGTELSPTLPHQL
Structure (SMILES),residual activity (Homo sapiens [1]),residual activity (Homo sapiens [2]),inhibition [3],residual activity [4],residual activity [5],residual activity (Homo sapiens [6]),residual activity [7],residual activity [8],residual activity [9],residual activity [10],inhibition [11]
CCN(CC)CCNC(=O)c1c(C)[nH]c(/C=C2\C(=O)Nc3ccc(F)cc32)c1C,2%,,,,,,,,,,
C[C@@H](N)[C@H]1CC[C@H](C(=O)Nc2ccncc2)CC1,,105%,77%,85%,101%,79%,101%,69%,44%,103%,
CC1=C(C(=O)Nc2cc3cn[nH]c3cc2F)C(c2ccc(C(F)(F)F)cc2)CC(=O)N1 (configuration not stated),97%,,,,,,,,,,87%
O=S(=O)(c1cccc2cnccc12)N1CCCNCC1 [FASUDIL],,70%,60%,109%,112%,46%,69%,129%,27%,108%,
Cc1cncc2cccc(S(=O)(=O)N3CCCNC[C@@H]3C)c12,,,,,,,,,,,69%
